In patent US10875876B2, “Cyclized sulfamoylarylamide derivatives and the use thereof as medicaments for the treatment of hepatitis B” (priority 2015, dated 2020) one finds CC50 and EC50 data, which are given here for 24 molecules.

Like-named read-outs stand apart in the source and are kept apart here.

Data set [1] is described as follows: Cytotoxicity in HepG2 cells, Resazurin assay. The conditions noted are these: human, HepG2 cells, TOX-HepG2-4 d CC50 (μM), HepG2 cells incubated for 4 days, viability by Resazurin assay.
The test system of the next data set is HBV. Put plainly: anti HBV activity, HepG2.117 cell line, intracellular HBV DNA by realtime PCR. The settings on record: HepG2.117 cell line (Tet-off), 3 days of treatment, intracellular HBV DNA quantified by realtime PCR, read-out: HBV-AVE-HepG2.117 EC50. It is filed as cell-based. A digest of the protocol: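 HepG2.117 cells, a Tet-off line that replicates HBV without doxycycline, were induced and then treated in duplicate with serially diluted compound. After 3 days, intracellular HBV DNA was quantified by real-time PCR with an HBV-specific primer set and probe.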

Where [2] appears, read: Hepatitis B virus, HepG2.117, 72 h.

For the molecule `Cn1cc2c(c1C(=O)Nc1ccc(F)c(F)c1)OC[C@@H](C(O)C1CC1)NS2(=O)=O` (single isomer, unassigned) [Compound 92a], the CC50 (commonly the concentration giving 50% cytotoxicity) at 4 days in data set [1] was more than 24 µM. Moreover, the EC50 (commonly the concentration at which the effect is half-maximal) with HBV amounted to 31 nM.
In data set [1], `Cc1cc(CC2(C)COc3c(cn(C)c3C(=O)Nc3ccc(F)c(C(F)F)c3)S(=O)(=O)N2)n(C)n1` (racemic) [Compound 176, N-[3-(difluoromethyl)-4-fluoro-phenyl]-3-[(2,5-dimethylpyrazol-3-yl)methyl]-3,7-dimethyl-1,1-dioxo-2,4-dihydropyrrolo[3,4-b][1,4,5]oxathiazepine-6-carboxamide] gave a CC50 at 4 days of more than 25 µM. In addition, in the data set on HBV (setting [2]), the EC50 came out at 4 nM.
Regarding `Cn1cc2c(c1C(=O)Nc1ccc(F)c(F)c1)OC[C@@H](c1ccccc1)NS2(=O)=O` [Compound 25, (3R)—N-(3,4-difluorophenyl)-7-methyl-1,1-dioxo-3-phenyl-3,4-dihydro-2H-pyrrolo[3,4-b][1,4,5]oxathiazepine-6-carboxamide], the CC50 at 4 days in data set [1] was more than 25 µM. In addition, in the data set with HBV (setting [2]), the EC50 was 22 nM.
For the molecule `C[C@H](O)[C@H]1CCc2c(cn(C)c2C(=O)Nc2ccc(F)c(C#N)c2)S(=O)(=O)N1` [Compound 90, (3R)—N-(3-cyano-4-fluoro-phenyl)-3-[(1S)-1-hydroxyethyl]-7-methyl-1,1-dioxo-2,3,4,5-tetrahydropyrrolo[3,4-f]thiazepine-6-carboxamide], the CC50 at 4 days in data set [1] is more than 25 µM. For the same molecule, the EC50 with HBV (setting [2]) came to 19 nM.
In turn, `Cc1cc(CC2(C)COc3c(cn(C)c3C(=O)Nc3ccc(F)c(F)c3)S(=O)(=O)N2)no1` (single isomer, unassigned) [Compound 162a, N-(3,4-difluorophenyl)-3,7-dimethyl-3-[(5-methylisoxazol-3-yl)methyl]-1,1-dioxo-2,4-dihydropyrrolo[3,4-b][1,4,5]oxathiazepine-6-carboxamide] had a 50% cytotoxic concentration (CC50) at 4 days in data set [1] of more than 25 µM. Besides, the EC50 in the data set with HBV was 33 nM.
In data set [1], `Cn1cc2c(c1C(=O)Nc1ccc(F)c(F)c1)OCC(C1CCOCC1)NS2(=O)=O` (single isomer, unassigned) [Compound 89a, N-(3,4-difluorophenyl)-7-methyl-1,1-dioxo-3-tetrahydropyran-4-yl-3,4-dihydro-2H-pyrrolo[3,4-b][1,4,5]oxathiazepine-6-carboxamide] had a CC50 at 4 days of more than 25 µM. Moreover, the EC50 in the data set with HBV amounted to 190 nM.
Turning to `Cn1cc2c(c1C(=O)Nc1ccc(F)c(C#N)c1)CCC(C(C)(C)O)NS2(=O)=O` (single isomer, unassigned) [Compound 116a, N-(3-cyano-4-fluoro-phenyl)-3-(1-hydroxy-1-methyl-ethyl)-7-methyl-1,1-dioxo-2,3,4,5-tetrahydropyrrolo[3,4-f]thiazepine-6-carboxamide], the CC50 at 4 days in data set [1] was more than 25 µM. For the same molecule, in the data set with HBV, the 50% effective concentration (EC50) was 22 nM.
`Cc1cc(NC(=O)c2c3c(cn2C)S(=O)(=O)N[C@@H](C)C=C3)ccc1F` (single isomer, unassigned) [Compound 31, (*S)—N-(4-fluoro-3-methyl-phenyl)-3,7-dimethyl-1,1-dioxo-2,3-dihydropyrrolo[3,4-f]thiazepine-6-carboxamide]: in data set [1], the CC50 at 4 days is more than 25 µM. Besides, the EC50 with HBV (setting [2]) amounted to 9 nM.
`Cn1cc2c(c1C(=O)Nc1ccc(F)c(C(F)F)c1)OC[C@H](C(C)(C)O)NS2(=O)=O` [Compound 100, (3R)—N-[3-(difluoromethyl)-4-fluoro-phenyl]-3-(1-hydroxy-1-methyl-ethyl)-7-methyl-1,1-dioxo-3,4-dihydro-2H-pyrrolo[3,4-b][1,4,5]oxathiazepine-6-carboxamide] gave a CC50 at 4 days in data set [1] of more than 25 µM. Further, in the data set on HBV (setting [2]), the EC50 was 3 nM.
Molecule `Cn1cc2c(c1C(=O)Nc1ccc(F)c(F)c1)OCC(C1CCNCC1)NS2(=O)=O` (stereo not drawn) [Compound 73, N-(3,4-difluorophenyl)-7-methyl-1,1-dioxo-3-(4-piperidyl)-3,4-dihydro-2H-pyrrolo[3,4-b][1,4,5]oxathiazepine-6-carboxamide] had a CC50 at 4 days in data set [1] of more than 25 µM. Moreover, in the data set on HBV (setting [2]), the 50% effective concentration (EC50) came to 480 nM.
For `Cn1cc2c(c1C(=O)Nc1ccc(F)c(C#N)c1)OCC(C)(CO)NS2(=O)=O` (single isomer, unassigned) [Compound 210a, N-(3-cyano-4-fluoro-phenyl)-3-(hydroxymethyl)-3,7-dimethyl-1,1-dioxo-2,4-dihydropyrrolo[3,4-b][1,4,5]oxathiazepine-6-carboxamide] the same measures were more than 25 µM and 37 nM.
On to `Cn1ccc(CC2(C)COc3c(cn(C)c3C(=O)Nc3ccnc(C(F)F)c3)S(=O)(=O)N2)n1` (single isomer, unassigned) [Compound 217a, N-[2-(difluoromethyl)-4-pyridyl]-3,7-dimethyl-3-[(1-methylpyrazol-3-yl)methyl]-1,1-dioxo-2,4-dihydropyrrolo[3,4-b][1,4,5]oxathiazepine-6-carboxamide], for which the CC50 at 4 days in data set [1] was more than 25 µM. The EC50 in the data set with HBV is 25 nM.
Regarding `CC1Cc2c(cn(C)c2C(=O)Nc2ccc(F)c(F)c2)S(=O)(=O)N1` (stereo not drawn) [Compound 11, N-(3,4-difluorophenyl)-3,6-dimethyl-1,1-dioxo-3,4-dihydro-2H-pyrrolo-[3,4-e]thiazine-5-carboxamide], the CC50 at 4 days in data set [1] is more than 25 µM. Moreover, the EC50 in the data set on HBV (setting [2]) was 77 nM.
`Cn1cc2c(c1C(=O)Nc1ccc(F)c(F)c1)OC[C@@H](C(F)(F)F)NS2(=O)=O` [Compound 61, (3S)—N-(3,4-difluorophenyl)-7-methyl-1,1-dioxo-3-(trifluoromethyl)-3,4-dihydro-2H-pyrrolo[3,4-b][1,4,5]oxathiazepine-6-carboxamide] displayed a CC50 at 4 days in data set [1] of more than 25 µM. Besides, the EC50 with HBV (setting [2]) was 74 nM.
Molecule `CC(C)C1C=Cc2c(cn(C)c2C(=O)Nc2ccc(F)c(F)c2)S(=O)(=O)N1` (single isomer, unassigned) [Compound 79a, N-(3,4-difluorophenyl)-3-isopropyl-7-methyl-1,1-dioxo-2,3-dihydropyrrolo[3,4-f]thiazepine-6-carboxamide] gave a CC50 at 4 days in data set [1] of more than 25 µM. Also, in the data set on HBV, the EC50 came to 43 nM.
Consider `CC1CNc2c(cn(C)c2C(=O)Nc2ccc(F)c(F)c2)S(=O)(=O)N1` (stereo not drawn) [Compound 67, N-(3,4-difluorophenyl)-3,7-dimethyl-1,1-dioxo-2,3,4,5-tetrahydropyrrolo[3,4-f][1,2,5]thiadiazepine-6-carboxamide], for which, in data set [1], the CC50 at 4 days is more than 25 µM. The 50% effective concentration (EC50) with HBV (setting [2]) was 69 nM.
The like results for `Cn1cc2c(c1C(=O)Nc1ccc(F)c(C#N)c1)C=CC(C(F)F)NS2(=O)=O` (stereo not drawn) [Compound 189, N-(3-cyano-4-fluoro-phenyl)-3-(difluoromethyl)-7-methyl-1,1-dioxo-2,3-dihydropyrrolo[3,4-f]thiazepine-6-carboxamide] were, in that order, more than 25 µM and 110 nM.
For `CC1CCc2c(cn(C)c2C(=O)Nc2ccc(F)c(F)c2)S(=O)(=O)N1` (single isomer, unassigned) [Compound 10a, N-(3,4-difluorophenyl)-3,7-dimethyl-1,1-dioxo-2,3,4,5-tetrahydropyrrolo[3,4-f]thiazepine-6-carboxamide], the CC50 at 4 days in data set [1] is more than 25 µM. In the data set with HBV, the EC50 was 220 nM.
As for `Cn1cc2c(c1C(=O)Nc1cc(F)c(F)c(F)c1)OCC(C)(CO)NS2(=O)=O` (single isomer, unassigned) [Compound 214a, 3-(hydroxymethyl)-3,7-dimethyl-1,1-dioxo-N-(3,4,5-trifluorophenyl)-2,4-dihydropyrrolo[3,4-b][1,4,5]oxathiazepine-6-carboxamide], the CC50 at 4 days in data set [1] is more than 25 µM. Moreover, the EC50 with HBV turned out to be 120 nM.
In data set [1], `Cc1cc(NC(=O)c2c3c(cn2C)S(=O)(=O)N[C@@H](Cc2cccnc2)CO3)ccc1F` [Compound 74, (3S)—N-(4-fluoro-3-methyl-phenyl)-7-methyl-1,1-dioxo-3-(3-pyridylmethyl)-3,4-dihydro-2H-pyrrolo[3,4-b][1,4,5]oxathiazepine-6-carboxamide] registered a half-maximal cytotoxic concentration (CC50) at 4 days of more than 25 µM. Moreover, the EC50 in the data set on HBV (setting [2]) was 52 nM.
Take `C[C@H]1C=Cc2c(cn(C)c2C(=O)Nc2ccc(F)c(C#N)c2)S(=O)(=O)N1` (single isomer, unassigned) [Compound 32, (*S)—N-(3-cyano-4-fluoro-phenyl)-3,7-dimethyl-1,1-dioxo-2,3-dihydropyrrolo[3,4-f]thiazepine-6-carboxamide]: the CC50 at 4 days in data set [1] was more than 25 µM. The EC50 in the data set on HBV (setting [2]) worked out at 3 nM.
Molecule `C[C@H]1CCc2c(cn(C)c2C(=O)Nc2ccc(F)c(C(F)F)c2)S(=O)(=O)N1` (single isomer, unassigned) [Compound 55, (3*S)—N-[3-(difluoromethyl)-4-fluoro-phenyl]-3,7-dimethyl-1,1-dioxo-2,3,4,5-tetrahydropyrrolo[3,4-f]thiazepine-6-carboxamide] registered a half-maximal cytotoxic concentration (CC50) at 4 days in data set [1] of more than 25 µM. Further, in the data set on HBV (setting [2]), the EC50 worked out at 3 nM.
The molecule `Cc1cc(C2(C)COc3c(cn(C)c3C(=O)Nc3ccc(F)c(C(F)F)c3)S(=O)(=O)N2)no1` (racemic) [Compound 181, N-[3-(difluoromethyl)-4-fluoro-phenyl]-3,7-dimethyl-3-(5-methylisoxazol-3-yl)-1,1-dioxo-2,4-dihydropyrrolo[3,4-b][1,4,5]oxathiazepine-6-carboxamide] came in with a CC50 at 4 days in data set [1] of more than 25 µM. The 50% effective concentration (EC50) in the data set with HBV (setting [2]) is 8 nM.
As for `CC1C=Cc2c(cn(C)c2C(=O)Nc2cc(F)c(F)c(F)c2)S(=O)(=O)N1` (single isomer, unassigned) [Compound 29, (*S)-3,7-dimethyl-1,1-dioxo-N-(3,4,5-trifluorophenyl)-2,3-dihydropyrrolo[3,4-f]thiazepine-6-carboxamide], in data set [1], the CC50 at 4 days was more than 25 µM. Also, the EC50 in the data set with HBV (setting [2]) came out at 5 nM.
